How the values were obtained:
[1] = molecular target: T1, Protein mono-ADP-ribosyltransferase PARP15 (Homo sapiens, UniProt Q460N3); test: Inhibition of human N-terminal 6His-tagged PARP15 (460 to 656 residues) expressed in Escherichia coli Rosetta2 (DE3) cells using NAD+ as substrate incubated for 10 mins by fluorescence based analysis
T1 sequence (Q460N3 whole entry): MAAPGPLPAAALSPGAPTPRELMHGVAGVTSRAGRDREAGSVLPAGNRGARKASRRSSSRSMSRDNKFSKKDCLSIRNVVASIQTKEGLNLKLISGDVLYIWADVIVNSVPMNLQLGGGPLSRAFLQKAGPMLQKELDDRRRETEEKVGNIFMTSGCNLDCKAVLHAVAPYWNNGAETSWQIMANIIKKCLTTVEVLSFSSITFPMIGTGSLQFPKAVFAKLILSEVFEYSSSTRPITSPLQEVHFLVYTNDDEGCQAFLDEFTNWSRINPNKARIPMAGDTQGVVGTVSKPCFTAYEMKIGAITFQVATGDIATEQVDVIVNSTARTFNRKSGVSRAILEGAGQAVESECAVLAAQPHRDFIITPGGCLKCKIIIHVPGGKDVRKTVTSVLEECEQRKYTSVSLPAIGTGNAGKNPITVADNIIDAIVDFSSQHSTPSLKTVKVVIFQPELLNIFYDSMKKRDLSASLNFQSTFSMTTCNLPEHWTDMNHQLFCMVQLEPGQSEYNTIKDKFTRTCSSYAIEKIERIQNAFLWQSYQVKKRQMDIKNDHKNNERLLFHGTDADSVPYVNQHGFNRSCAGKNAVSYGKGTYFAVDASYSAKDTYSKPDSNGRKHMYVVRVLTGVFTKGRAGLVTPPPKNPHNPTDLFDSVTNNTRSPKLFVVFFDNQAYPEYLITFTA

[2] = molecular target: T2, Protein mono-ADP-ribosyltransferase PARP12 (Homo sapiens, UniProt Q9H0J9); test: Inhibition of human PARP12
T2 sequence (Q9H0J9 whole entry): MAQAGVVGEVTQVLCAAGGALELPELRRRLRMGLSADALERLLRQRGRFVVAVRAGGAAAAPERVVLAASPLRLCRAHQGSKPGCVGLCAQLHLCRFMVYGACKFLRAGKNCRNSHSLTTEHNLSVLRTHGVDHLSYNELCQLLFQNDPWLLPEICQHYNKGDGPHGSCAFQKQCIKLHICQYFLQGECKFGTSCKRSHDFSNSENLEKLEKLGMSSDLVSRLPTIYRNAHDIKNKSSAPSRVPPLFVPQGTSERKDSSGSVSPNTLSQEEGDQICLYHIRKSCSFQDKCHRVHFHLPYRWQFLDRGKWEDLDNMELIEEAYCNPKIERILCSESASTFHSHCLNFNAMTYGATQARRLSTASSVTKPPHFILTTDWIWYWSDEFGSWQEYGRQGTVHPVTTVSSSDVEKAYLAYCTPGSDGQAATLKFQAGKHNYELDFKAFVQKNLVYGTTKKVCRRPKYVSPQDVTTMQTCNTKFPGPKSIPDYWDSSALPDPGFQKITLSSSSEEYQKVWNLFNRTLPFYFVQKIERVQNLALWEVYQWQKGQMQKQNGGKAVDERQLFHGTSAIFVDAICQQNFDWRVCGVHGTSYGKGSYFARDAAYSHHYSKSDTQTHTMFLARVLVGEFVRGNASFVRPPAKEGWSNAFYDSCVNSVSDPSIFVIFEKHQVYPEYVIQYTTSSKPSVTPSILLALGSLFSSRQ

[3] = molecular target: Protein mono-ADP-ribosyltransferase PARP4 (Homo sapiens, UniProt Q9UKK3); test: Inhibition of human PARP4
Chain of Protein mono-ADP-ribosyltransferase PARP4 (Q9UKK3 whole entry): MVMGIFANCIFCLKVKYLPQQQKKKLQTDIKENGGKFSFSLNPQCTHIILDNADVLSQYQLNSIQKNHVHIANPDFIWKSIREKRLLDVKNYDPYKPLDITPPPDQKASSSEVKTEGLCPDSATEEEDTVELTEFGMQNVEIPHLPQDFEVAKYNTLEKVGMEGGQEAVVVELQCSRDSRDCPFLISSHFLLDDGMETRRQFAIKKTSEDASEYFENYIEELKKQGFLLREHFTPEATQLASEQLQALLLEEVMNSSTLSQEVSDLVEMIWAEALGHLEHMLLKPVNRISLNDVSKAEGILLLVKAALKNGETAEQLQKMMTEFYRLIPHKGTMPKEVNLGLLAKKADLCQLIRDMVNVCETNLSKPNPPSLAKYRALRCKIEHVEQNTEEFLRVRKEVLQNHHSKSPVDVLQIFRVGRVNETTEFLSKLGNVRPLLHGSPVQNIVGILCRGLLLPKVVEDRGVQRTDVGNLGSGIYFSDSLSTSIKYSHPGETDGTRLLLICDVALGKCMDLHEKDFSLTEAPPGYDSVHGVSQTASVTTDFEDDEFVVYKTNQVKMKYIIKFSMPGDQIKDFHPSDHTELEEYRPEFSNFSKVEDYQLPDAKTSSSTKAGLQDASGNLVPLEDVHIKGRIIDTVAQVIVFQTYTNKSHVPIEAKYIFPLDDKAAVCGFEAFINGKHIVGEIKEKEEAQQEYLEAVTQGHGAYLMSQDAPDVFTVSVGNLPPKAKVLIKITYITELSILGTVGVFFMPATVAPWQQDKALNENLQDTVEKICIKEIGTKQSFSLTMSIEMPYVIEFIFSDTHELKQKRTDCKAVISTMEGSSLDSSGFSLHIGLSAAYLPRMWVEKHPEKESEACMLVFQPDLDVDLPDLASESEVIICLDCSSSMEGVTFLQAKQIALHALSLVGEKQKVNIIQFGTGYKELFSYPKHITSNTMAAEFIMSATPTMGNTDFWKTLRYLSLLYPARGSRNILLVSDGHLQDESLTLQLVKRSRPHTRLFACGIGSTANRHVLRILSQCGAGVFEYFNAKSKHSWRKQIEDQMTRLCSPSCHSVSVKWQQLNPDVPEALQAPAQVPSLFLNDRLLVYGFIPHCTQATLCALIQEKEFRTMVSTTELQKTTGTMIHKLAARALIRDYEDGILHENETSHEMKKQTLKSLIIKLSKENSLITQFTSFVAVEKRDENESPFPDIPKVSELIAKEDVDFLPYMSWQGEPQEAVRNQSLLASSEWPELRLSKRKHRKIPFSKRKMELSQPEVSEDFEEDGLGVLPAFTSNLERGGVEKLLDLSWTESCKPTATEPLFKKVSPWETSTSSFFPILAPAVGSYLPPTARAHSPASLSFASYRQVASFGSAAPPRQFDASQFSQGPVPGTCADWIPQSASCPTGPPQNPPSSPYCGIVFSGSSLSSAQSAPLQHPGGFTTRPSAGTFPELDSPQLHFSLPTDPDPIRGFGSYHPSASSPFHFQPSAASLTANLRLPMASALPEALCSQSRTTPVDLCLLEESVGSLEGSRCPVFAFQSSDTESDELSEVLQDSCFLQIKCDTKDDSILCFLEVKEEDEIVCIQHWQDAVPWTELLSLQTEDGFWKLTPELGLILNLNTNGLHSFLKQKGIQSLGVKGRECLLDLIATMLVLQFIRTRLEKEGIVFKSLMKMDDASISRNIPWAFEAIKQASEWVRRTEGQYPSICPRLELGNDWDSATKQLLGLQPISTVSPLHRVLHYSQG

IC50 [1]: 2400 nM | IC50 [2]: > 10 µM | IC50 [3]: > 100 µM
SMILES: NC(=O)c1ccc(OCC2CCC2)cc1

Reference: ChEMBL document CHEMBL5120855, “Potent 2,3-dihydrophthalazine-1,4-dione derivatives as dual inhibitors for mono-ADP-ribosyltransferases PARP10 and PARP15” (Eur J Med Chem, 2022)
